Measurements as given in US8168651B2, “Protein kinase modulators” (Cylene Pharmaceuticals, Inc., priority 2008, dated 2012).
Read-outs that look alike come from different tables or passages of the source.

What was measured:
recombinant human CK2 = recombinant human CK2 (Homo sapiens (Human), UniProt P68400); experiment: CK2 assay (cell-free, 33P-ATP filter plate); assay type: biochemical; details: 500 nM compound, read-out: CK2: % inh 500 nM
recombinant human PIM1 = recombinant human PIM1 (Homo sapiens (Human), UniProt P11309); experiment: PIM-1 kinase activity in cell-free in vitro assay; assay type: biochemical; details: for inhibition at 0.5 µM: 500 nM compound, read-out: PIM-1: % inh 500 nM
[1] = tested on: HCT-116 human colorectal carcinoma cells; experiment: Cell-proliferation assay using Alamar Blue dye; assay type: cell-based; details: Homo sapiens;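 note: cells exposed to compound for about 4 days, then Alamar Blue added and dye fluorescence read after about 4 h, compared with medium-only control wells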
[2] = HCT-116, HCT-116, second column, read-out: HCT-116 (uM), cell proliferation modulatory activity
[3] = HCT-116, second HCT-116 column (c8), read-out: HCT-116 (uM) cell proliferation modulatory activity

Sequence of recombinant human CK2 (P68400 whole entry): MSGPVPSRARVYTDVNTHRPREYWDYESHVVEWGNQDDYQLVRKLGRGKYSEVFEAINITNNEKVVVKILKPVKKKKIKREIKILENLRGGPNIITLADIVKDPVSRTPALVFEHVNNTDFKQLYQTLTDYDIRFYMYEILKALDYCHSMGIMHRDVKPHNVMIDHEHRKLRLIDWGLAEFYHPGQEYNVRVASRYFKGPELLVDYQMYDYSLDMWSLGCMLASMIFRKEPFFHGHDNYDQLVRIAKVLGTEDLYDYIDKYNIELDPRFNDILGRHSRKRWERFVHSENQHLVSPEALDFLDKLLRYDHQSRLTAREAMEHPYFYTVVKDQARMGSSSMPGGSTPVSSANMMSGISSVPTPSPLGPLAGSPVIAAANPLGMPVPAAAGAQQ
Sequence of recombinant human CK2 (P67870 whole entry partner): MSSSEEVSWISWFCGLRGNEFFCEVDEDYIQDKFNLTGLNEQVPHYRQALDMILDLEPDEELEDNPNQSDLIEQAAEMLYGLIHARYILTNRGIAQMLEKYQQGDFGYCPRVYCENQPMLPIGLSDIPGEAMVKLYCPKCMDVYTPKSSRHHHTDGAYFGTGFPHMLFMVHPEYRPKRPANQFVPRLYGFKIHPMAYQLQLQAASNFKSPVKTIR
Sequence of recombinant human PIM1 (P11309 whole entry): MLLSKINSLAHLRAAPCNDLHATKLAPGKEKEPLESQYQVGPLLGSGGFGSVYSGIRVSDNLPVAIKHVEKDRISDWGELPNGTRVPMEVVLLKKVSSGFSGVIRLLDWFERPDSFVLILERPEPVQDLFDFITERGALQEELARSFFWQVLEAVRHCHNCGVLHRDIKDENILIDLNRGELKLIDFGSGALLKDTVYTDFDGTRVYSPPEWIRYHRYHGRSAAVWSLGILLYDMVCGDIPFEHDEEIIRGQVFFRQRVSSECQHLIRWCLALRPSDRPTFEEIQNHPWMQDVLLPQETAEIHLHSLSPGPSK

SMILES	inhibition at 0.5 µM (recombinant human CK2; cell-free assay) [%]	inhibition at 0.5 µM (recombinant human PIM1; cell-free assay) [%]	other results
COC(=O)c1ccc2c(c1)nc(Nc1ccc(F)c(Cl)c1)c1ncncc12			inhibition at 0.5 µM (recombinant human CK2; cell-free): 6.26%; inhibition at 0.5 µM (recombinant human PIM1; cell-free): -17.9%
Cc1noc(-c2ccc3c(c2)nc(Nc2ccccc2)c2ccncc23)n1			inhibition at 0.5 µM (recombinant human CK2; cell-free): 27.2%; inhibition at 0.5 µM (recombinant human PIM1; cell-free): 32.7%; IC50 (recombinant human PIM1; cell-free): > 1100 nM
CC(C)(C)OC(=O)CCNC(=O)c1cccc(Nc2nc3cc(-c4nnn[nH]4)ccc3c3sccc23)c1			inhibition at 0.5 µM (recombinant human CK2; cell-free): 40.5%; inhibition at 0.5 µM (recombinant human PIM1; cell-free): -11.7%; IC50 [1, 2]: > 10 µM
O=C(O)c1ccc2c(c1)nc(Nc1cccc(C(=O)Nc3ccccc3)c1)c1ccsc12			inhibition at 0.5 µM (recombinant human CK2; cell-free): 37.7%; inhibition at 0.5 µM (recombinant human PIM1; cell-free): -20.9%; IC50 [1, 2]: > 10 µM
O=C(O)c1ccc2c(c1)nc(Nc1cccc(C(=O)Nc3nccs3)c1)c1ccsc12			inhibition at 0.5 µM (recombinant human CK2; cell-free): 52.9%; inhibition at 0.5 µM (recombinant human PIM1; cell-free): 5.99%; IC50 [1, 2]: > 10 µM
CC(C)(C)OC(=O)CCNC(=O)c1cccc(Nc2nc3cc(C(=O)O)ccc3c3sccc23)c1			inhibition at 0.5 µM (recombinant human CK2; cell-free): 65.5%; inhibition at 0.5 µM (recombinant human PIM1; cell-free): 22.4%; IC50 [1, 2]: > 10 µM
O=C(O)c1ccc2c(c1)nc(Nc1cccc(C(=O)NCc3cccnc3)c1)c1ccsc12			inhibition at 0.5 µM (recombinant human CK2; cell-free): 62.2%; inhibition at 0.5 µM (recombinant human PIM1; cell-free): 25.8%; IC50 [1, 2]: > 10 µM
CN(C)C(=O)c1cccc(Nc2nc3cc(C(=O)O)ccc3c3sccc23)c1			inhibition at 0.5 µM (recombinant human CK2; cell-free): 21.3%; inhibition at 0.5 µM (recombinant human PIM1; cell-free): -12.2%; IC50 [1, 2]: > 10 µM
Cc1cc(CNC(=O)c2cccc(Nc3nc4cc(C(=O)O)ccc4c4sccc34)c2)no1			inhibition at 0.5 µM (recombinant human CK2; cell-free): 62.7%; inhibition at 0.5 µM (recombinant human PIM1; cell-free): 10.6%; IC50 [1, 2]: > 10 µM
COCCNC(=O)c1cccc(Nc2nc3cc(C(=O)O)ccc3c3sccc23)c1			inhibition at 0.5 µM (recombinant human CK2; cell-free): 65.2%; inhibition at 0.5 µM (recombinant human PIM1; cell-free): 12%; IC50 [1, 2]: > 10 µM
CC(=O)N1CCN(C(=O)c2cccc(Nc3nc4cc(C(=O)O)ccc4c4sccc34)c2)CC1			inhibition at 0.5 µM (recombinant human CK2; cell-free): 36.5%; inhibition at 0.5 µM (recombinant human PIM1; cell-free): 20.8%; IC50 [1, 2]: > 10 µM
CNc1ncc2c(n1)c(Nc1ccccc1)nc1cc(C(=O)OC)ccc12	-12.1	-9.76	
O=C(O)c1ccc2c(c1)nc(Nc1ccccc1Oc1ccccc1)c1ccncc12	96.5	25	IC50 [1, 3]: > 10 µM
O=C(O)c1ccc2c(c1)nc(Nc1ccccc1)c1nccnc12	41.5	-7.65	IC50 [1, 3]: > 10 µM
O=C(O)c1ccc2c(c1)nc(NCCc1ccccc1)c1nccnc12	5.49	-26	IC50 [1, 3]: > 10 µM
O=C(O)c1ccc2c(c1)nc(Nc1cccc(F)c1)c1nccnc12	88.7	21.9	IC50 [1, 3]: > 10 µM
CN(c1ccccc1)c1nc2cc(C(=O)O)ccc2c2nccnc12	19.3	1.15	IC50 [1, 3]: > 10 µM
CCN1CCCC1CNc1nc2cc(C(=O)O)ccc2c2cnccc12 (stereo not shown)	107	79.4	IC50 (recombinant human PIM1; cell-free assay): 155 nM
CN1CCCCC1CNc1nc2cc(C(=O)O)ccc2c2cnccc12 (stereo not shown)	103	82.5	IC50 (recombinant human PIM1; cell-free assay): 211 nM
CN1CCCCC1CNc1nc2cc(C(=O)O)ccc2c2sccc12 (stereo not shown)	80.1	88	IC50 (recombinant human PIM1; cell-free assay): 104 nM
CCN1CCCC1CNc1nc2cc(C(=O)O)ccc2c2sccc12 (stereo not shown)	92.8	93.3	IC50 (recombinant human PIM1; cell-free assay): 100 nM
CCN1CCCC1CNc1nc2cc(C#N)ccc2c2ccsc12 (stereo not shown)	-29.4	-9.29	
CC(C)(C)OC(=O)N1CCC(Nc2nc3cc(C#N)ccc3c3ccsc23)CC1	-17	-29.4	
CN(C)CCNc1nc2cc(C#N)ccc2c2ccsc12	-16.8	115	

SMILES	inhibition at 0.5 µM (recombinant human CK2; cell-free assay) [%]	inhibition at 0.5 µM (recombinant human PIM1; cell-free assay) [%]	other results
CN1CCCCC1CNc1nc2cc(C#N)ccc2c2ccsc12 (stereo not shown)	5.51	59.5	
CCN1CCCC1CNc1nc2cc(-c3nnn[nH]3)ccc2c2ccsc12 (stereo not shown)	1.86	80	
c1cc2c(s1)c(NC1CCNCC1)nc1cc(-c3nnn[nH]3)ccc12	53.7	111	IC50 (recombinant human PIM1; cell-free assay): 138 nM
CN(C)CCNc1nc2cc(-c3nnn[nH]3)ccc2c2ccsc12	24.2	99.2	IC50 (recombinant human PIM1; cell-free assay): 267 nM
CN1CCCCC1CNc1nc2cc(-c3nnn[nH]3)ccc2c2ccsc12 (stereo not shown)	-29.1	14.7	
COCCNc1nc2cc(C#N)ccc2c2sccc12	-18	-30.6	
COC(C)(C)CNc1nc2cc(C#N)ccc2c2sccc12	-17.1	-30	
COCCNc1nc2cc(-c3nnn[nH]3)ccc2c2sccc12	47.2	65	
OCCNc1nc2cc(-c3nnn[nH]3)ccc2c2sccc12	51.3	101	IC50 (recombinant human PIM1; cell-free assay): 143 nM
N#Cc1ccc2c(c1)nc(Oc1ccccc1)c1ccsc12	-54.2	-38.6	
COC(=O)c1cccc2c1[nH]c(=O)c1ccncc12	16.7	-70.5	
N#Cc1ccc2c(c1)nc(OCC(F)(F)F)c1ccsc12	-9.05	-50.2	
N#Cc1ccc2c(c1)nc(OCc1ccccc1)c1ccsc12	1.85	-18.4	
CN(C)CCOc1nc2cc(C#N)ccc2c2sccc12	-18	-43.2	
N#Cc1ccc2c(c1)nc(NCCN(CCO)CCO)c1ccsc12	-9.97	-17.7	
N#Cc1ccc2c(c1)nc(NCCC(F)(F)F)c1ccsc12	-7.76	-89.6	
N#Cc1ccc2c(c1)nc(NCC(F)(F)F)c1ccsc12	-18.4	-32	
c1ccc(COc2nc3cc(-c4nnn[nH]4)ccc3c3sccc23)cc1	5.71	-6.97	
CN(C)CCOc1nc2cc(-c3nnn[nH]3)ccc2c2sccc12	31.4	91.6	
FC(F)(F)COc1nc2cc(-c3nnn[nH]3)ccc2c2sccc12	33	32.3	
FC(F)(F)CNc1nc2cc(-c3nnn[nH]3)ccc2c2sccc12	49	93.2	
FC(F)(F)CCNc1nc2cc(-c3nnn[nH]3)ccc2c2sccc12	58.4	92.3	
CN1CCC(N(C)c2nc3cc(CN)ccc3c3sccc23)C1 (stereo not shown)	-35.3	-39.8	
CN1CCC(N(C)c2nc3cc(CNC(=O)Nc4cccc(Cl)c4)ccc3c3sccc23)C1 (stereo not shown)	-50.4	-38.5	

SMILES	inhibition at 0.5 µM (recombinant human CK2; cell-free assay) [%]	inhibition at 0.5 µM (recombinant human PIM1; cell-free assay) [%]	other results
O=C(O)c1ccc2c(c1)nc(NC1CCCCC1)c1ccncc12	95.8	64.8	
O=C(O)c1ccc2c(c1)nc(NC1CCCC1)c1ccncc12	101	106	IC50 (recombinant human PIM1; cell-free assay): 565 nM
N#Cc1ccc2c(c1)nc(Nc1cccc(F)c1)c1ccsc12	3.06	-4.85	
OCCN(CCO)CCNc1nc2cc(-c3nnn[nH]3)ccc2c2sccc12	50.7	118	IC50 (recombinant human PIM1; cell-free assay): 116 nM
N#Cc1ccc2c(c1)nc(Oc1ccc(F)c(F)c1)c1ccsc12	-9.99	27.8	
N#Cc1ccc2c(c1)nc(Oc1ccc3ncccc3c1)c1ccsc12	-7.33	-22.2	
N#Cc1ccc2c(c1)nc(Oc1ccc(F)cc1)c1ccsc12	-3.78	10	
CC(=O)c1ccc(Oc2nc3cc(C#N)ccc3c3sccc23)cc1	-17.9	1.38	
N#Cc1ccc2c(c1)nc(Oc1cccc(Cl)c1)c1ccsc12	-10.8	10.6	
Cc1cc2c(cc1OCc1ccccc1)[nH]c(=O)c1ccncc12	-7.77	-10.1	
O=c1[nH]c2cnccc2c2cnccc12	7.5	19.8	
NCc1ccc2c(c1)nc(Nc1cccc(F)c1)c1ccsc12	-8.77	-16.4	
Fc1cccc(Nc2nc3cc(CN(Cc4ccccc4)Cc4ccccc4)ccc3c3sccc23)c1	-2.29	2.98	
Cc1cc(NC(=O)NCc2ccc3c(c2)nc(Nc2cccc(F)c2)c2ccsc23)c(C(F)(F)F)o1	-9.99	-17.5	
Cc1noc(C)c1NC(=O)NCc1ccc2c(c1)nc(Nc1cccc(F)c1)c1ccsc12	-4.71	-11.2	
Cc1nn(C)c(C)c1NC(=O)NCc1ccc2c(c1)nc(Nc1cccc(F)c1)c1ccsc12	-5.43	11	
O=c1[nH]c2cc(F)ccc2c2cnccc12	-1.1	15.3	
O=c1[nH]c2ccc(OC(F)(F)F)cc2c2cnccc12	1.22	9.09	
COC(=O)c1cccc2c1nc(Cl)c1ccncc12 [drawing 2000]	10.1	-29.2	
O=C(O)c1cccc2c1nc(Nc1cccc(Cl)c1)c1ccncc12 [drawing 2001]	15.5	20.2	
NC(=O)c1cccc2c1nc(Nc1cccc(Cl)c1)c1ccncc12 [drawing 2002]	36.6	78.9	
COC(=O)c1cccc2c1nc(Nc1ccccc1)c1ccncc12 [drawing 2003]	-7.87	3.96	
O=C(O)c1cccc2c1nc(Nc1ccccc1)c1ccncc12 [drawing 2004]	-13.5	-77.4	
